The record followed here is paper PMC11184554, “Nature-Inspired Gallinamides Are Potent Antischistosomal Agents: Inhibition of the Cathepsin B1 Protease Target and Binding Mode Analysis” (ACS Infectious Diseases, 2024).

The subject of one series is recombinant SmCB1. The series can be described thus: Kinetic inhibition assay with recombinant SmCB1 (k2nd). To be noted: for SmCB1 inhibition k2nd: second-order rate constant (kinact/Ki), substrate Cbz–Phe–Arg–AMC, pH 5.5, 37 °C, mean ± SE; for decrease in inhibitory potency vs gallinamide A: ratio of k2nd values. Format: biochemical, S. mansoni. Here is the method: Gallinamide A and a series of its 18 derivatives were evaluated in vitro as inhibitors of SmCB1 to explore the binding specificities of the subsites in the enzyme’s active site. The gallinamide A inhibitor scaffold can be defined by positions P4 through P1′ (Schechter and Berger nomenclature[37]), which were assigned according to the binding mode analysis (see the crystallographic section below). The substituents R4, R1, and R1′ introduced on the scaffold (Table 2) are numbered according to the respective positions P4, P1, and P1′. The compounds’ second-order rate constants (k2nd) were determined using a kinetic inhibition assay with recombinant SmCB1 and the substrate, Cbz–Phe–Arg–AMC.
(§1) Inhibition measurements were performed in duplicate in 96-well microplates (100 μL assay volume) at 37 °C. SmCB1 (40 pM) was added to a mixture of the fluorogenic substrate Cbz–Phe–Arg–AMC (25 μM) and an inhibitor (0–100 μM) in 0.1 M sodium acetate, pH 5.5, containing 2.5 mM dithiothreitol and 0.01% (w/v) BRIJ 35. Substrate hydrolysis was monitored in an Infinite M1000 microplate reader (Tecan) at excitation and emission wavelengths of 360 and 465 nm, respectively, for up to 150 min. An observed first-order rate constant, kobs, was calculated at each inhibitor concentration by fitting the progress curve to the equation P = vi/kobs(1 – exp(−kobst)) + d where P is the product formation, t is the reaction time, vi is the initial velocity, and d is the offset. […] The second-order rate constant, k2nd, (and SE value) was determined by fitting the linear equation kobs = (k2nd[I])/(1 + [S]/Km), where [S] is the substrate concentration, [I] is the inhibitor concentration, and KM is the Michaelis–Menten constant. The KM value determined for SmCB1 was 25 μM. […] To determine IC50 values, SmCB1 (40 pM) was preincubated with the inhibitor (0–100 μM) for 30 min under assay conditions as described above, followed by the addition of the fluorogenic substrate Cbz–Phe–Arg–AMC (20 μM). Substrate hydrolysis was monitored for 30 min in a microplate reader as described above. The IC50 values were determined by nonlinear regression using GraFit software (Erithacus Software).

Series [1] in a line: Cytotoxicity, CellTiter Glo 2.0. Format: cell-based. To be noted: human, ± SD; for viability at 72 h, 1 µM: panel A, read-out: Cell line viability after 72 h (%); for viability at 24 h, 10 µM / viability at 48 h, 10 µM / viability at 72 h, 10 µM: panel B, read-out: Cell line viability (%) after treatment with 10 µM compound. Here is the method: Table S4. Cytotoxicity of gallinamides.
Cytotoxicity of gallinamide A and compounds 1, 6, and 9 was tested with four human cell lines and expressed as % viability vs. untreated cells. Cells were treated with the indicated compound concentrations for 72 h (A) or with 10 µM compounds for the indicated time (B) and assayed using CellTiter Glo 2.0 (Promega) according to the manufacturer’ s protocol. Cytotoxicity was expressed as percent viability compared to untreated control cells; the standard deviation of the mean of quadruplicate readings is shown. Cell line abbreviations: HL-60, human promyelocytic leukemia; HeLa, human cervical carcinoma; HepG2, human hepatocellular carcinoma; NHDF, normal human dermal fibroblasts.
Cell line viability after 72 h (%)
Cell line HL-60 HeLa HepG2 NHDF
Cell line viability (%) after treatment w ith 10 µM compound
On the technique in general: Cellular ATP, detected with luciferase, serves as a proxy for viable cell number.

The target in another series is SmCB1 (Schistosoma mansoni, UniProt Q8MNY2, T185A/T300A). The series can be described thus: SmCB1 IC50 determination with 30 min preincubation. Format: biochemical, S. mansoni. Here is the method: as §1
Chain of SmCB1 (Q8MNY2 87-340 T185A/T300A): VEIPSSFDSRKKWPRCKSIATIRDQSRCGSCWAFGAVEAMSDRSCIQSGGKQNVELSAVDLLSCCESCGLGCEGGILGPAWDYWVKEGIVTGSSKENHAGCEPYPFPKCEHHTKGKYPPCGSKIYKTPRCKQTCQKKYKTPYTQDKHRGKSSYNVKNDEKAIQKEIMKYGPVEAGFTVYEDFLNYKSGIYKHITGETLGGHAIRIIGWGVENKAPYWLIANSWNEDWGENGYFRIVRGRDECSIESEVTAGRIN
For series [2], the system named is S. mansoni newly transformed schistosomula (NTS). The series can be described thus: Phenotypic screen with newly transformed schistosomula (NTS). The format is cell-based. On the procedure: The same 19 gallinamides were screened for bioactivity against S. mansoni newly transformed schistosomula (NTS), the postinvasive parasite stage that feeds on host blood.[40] In this primary assay, the NTS were exposed to 1 and 10 μM compounds for 3 days, and the resulting phenotypic responses were graded from 0 through 4, i.e., the least to the most severe (Table 2 and Table S1). […] The effects were more pronounced after 72 h, and when the higher, 10 μM, compound concentration was used (Table S1). […] Also, compared to gallinamide A and its analogs, 3 has an additional N-terminal N-acetamide modification that further reduces bioactivity (Table 2).
Phenotypic screens employed S. mansoni newly transformed schistosomula (NTS) and adults and were carried out as described previously.[18]−[20],[42] NTS were prepared by mechanically transforming infective larvae (cercariae).[40],[42] NTS (200–300 parasites) were incubated in flat-bottomed 96-well plates in 200 μL of Basch Medium 169 containing 5% (v/v) FBS, 100 U mL^–1 penicillin and 100 μg mL^–1 streptomycin (complete Basch medium)[75] at 5% CO2 and 37 °C.[76],[77] Inhibitors were added at final concentrations of 1 and 10 μM, and changes in phenotypes were observed under an inverted microscope every 24 h for up to 72 h.
A constrained nomenclature of “descriptors”[39],[42] was used to record the multiple and dynamic changes in movement, shape, and translucence that the schistosome parasite is capable of (Table S1 for NTS and Table S3 for adults). These descriptors were then converted into an ordinal “severity score” system ranging from 0 (no effect) to 4 (maximum effect), which allows for the relative comparison of compound effects.

Where [3] appears, read: 1 μM compound, 24 h, scale 0 (no effect) to 4 (most severe).
Setting [4] is: 1 μM compound, 48 h, scale 0 to 4.
[5] abbreviates: 1 μM compound, 72 h, scale 0 to 4.
[6] abbreviates: 10 µM compound, 24 h, scale 0 to 4.
[7] abbreviates: 10 µM compound, 48 h, scale 0 to 4.
The mark [8] stands for this setting: 10 µM compound, 72 h, scale 0 to 4.

Values joined by “and” are separate entries in the source; they are usually repeats but may differ in a detail not shown here. Equal entries are not always repeated. Where two headings read alike, the source gives them in different places.

Regarding `CC[C@H](C)[C@@H](C(=O)O[C@@H](CC(C)C)C(=O)N[C@@H](CC(C)C)C(=O)N[C@@H](C)/C=C/C(=O)N1C(=O)C=C(OC)[C@@H]1C)N(C)C` [gallinamide A], the “SmCB1 inhibition k2nd” value was 6644 M^–1·s^–1 and 6644 ± 532 M^–1·s^–1 in the series on recombinant SmCB1; 6644 M^–1·s^–1 in the series with recombinant SmCB1 (listed as Gallinamide A). Besides, the viability (usually a read-out of living cells in per cent, often relative to untreated cells) at 72 h, 1 µM in series [1] (HL-60, vs untreated cells) was determined as 100 ± 6%; in series [1] (HeLa) it was 96 ± 4%; in series [1] (HepG2), 96 ± 3%; in series [1] (NHDF), 105 ± 6%. Moreover, the viability at 24 h, 10 µM in series [1] (HL-60) is 99 ± 5%; in series [1] (HeLa), 77 ± 4%; in series [1] (HepG2), 93 ± 6%; in series [1] (NHDF), 80 ± 2%. The viability at 48 h, 10 µM in series [1] (HL-60) turned out to be 77 ± 3%; in series [1] (HeLa) it was 73 ± 3%; in series [1] (HepG2), 98 ± 7%; in series [1] (NHDF), 89 ± 3%. For the same compound, the viability at 72 h, 10 µM was found to be 73 ± 5% in series [1] (HL-60), 88 ± 6% in series [1] (HeLa), 94 ± 11% in series [1] (HepG2) and 94 ± 94% in series [1] (NHDF). Half-maximal inhibition against SmCB1 (IC50) required 44 nM. The schistosomula severity score is 1 in series [2] (setting [3]); 2 in series [2] (setting [4]); 4 in series [2] (setting [5]); 4 in series [2] (setting [6]); 4 in series [2] (setting [7]); 4 in series [2] (setting [8]). The schistosomula phenotype descriptors result in series [2] (1 µM compound, 48 h) is listed as “Dark, R”.
`CCC(C)C(C(=O)OC(CC(C)C)C(=O)NC(CC(C)C)C(=O)NC(C)C=CC(=O)N1C(=O)C=C(OC)C1CC(C)C)N(C)C` (centres unmarked) [compound 1]: the “decrease in inhibitory potency vs gallinamide A” value (“decrease in inhibitory potency” below) with recombinant SmCB1 was determined as 2 fold. The “SmCB1 inhibition k2nd” value with recombinant SmCB1 was 3394 ± 133 M^–1·s^–1; in the series with recombinant SmCB1 (listed as Cpd.1) it was 3394 M^–1·s^–1. On SmCB1, the IC50 (usually the concentration that gives 50% inhibition) was determined as 92 nM. The schistosomula phenotype descriptors result in series [2] (1 µM compound, 24 h) is recorded as “R, unc”. For the same compound, the schistosomula severity score came out at 2 in series [2] (setting [3]); 4 in series [2] (setting [4]); 4 in series [2] (setting [5]); 4 in series [2] (setting [6]); 4 in series [2] (setting [7]); 4 in series [2] (setting [8]).
Take `COC1=CC(=O)N(C(=O)/C=C/[C@H](C)NC(=O)[C@H](CC(C)C)NC(=O)[C@H](CC(C)C)OC(=O)[C@H](Cc2ccccc2)N(C)C)[C@H]1Cc1ccccc1` [compound 6]: in the series on recombinant SmCB1, the “decrease in inhibitory potency” value turned out to be 3.4 fold. The “SmCB1 inhibition k2nd” value with recombinant SmCB1 is listed as 1930 ± 304 M^–1·s^–1; in the series on recombinant SmCB1 (listed as Cpd.6), 1930 M^–1·s^–1. Moreover, the viability at 72 h, 1 µM is 100 ± 5% in series [1] (HL-60, vs untreated cells); 93 ± 4% in series [1] (HeLa); 104 ± 3% in series [1] (HepG2); 99 ± 3% in series [1] (NHDF). The viability at 24 h, 10 µM was 31 ± 1% in series [1] (HL-60), 45 ± 1% in series [1] (HeLa), 61 ± 1% in series [1] (HepG2) and 100 ± 2% in series [1] (NHDF). Moreover, the viability at 48 h, 10 µM in series [1] (HL-60) was 11 ± 2%; in series [1] (HeLa) it was 13 ± 1%; in series [1] (HepG2), 14 ± 1%; in series [1] (NHDF) it was 35 ± 3%. The viability at 72 h, 10 µM in series [1] (HL-60) came to 11%; in series [1] (HeLa), 13 ± 1%; in series [1] (HepG2), 13 ± 1%; in series [1] (NHDF) it was 13 ± 13%. The compound also yielded an IC50 on SmCB1 of 517 nM. In addition, in series [2] (1 µM compound, 24 h), the schistosomula phenotype descriptors entry was “R, unc”. Moreover, the schistosomula severity score in series [2] (setting [3]) was 2; in series [2] (setting [4]), 4; in series [2] (setting [5]), 4; in series [2] (setting [6]), 4; in series [2] (setting [7]) it was 4; in series [2] (setting [8]), 4.
Consider `CCC(C)C(C(=O)OC(CC(C)C)C(=O)NC(CC(C)C)C(=O)NC(C)C=CC(=O)N1C(=O)C=C(OC)C1Cc1ccccc1)N(C)C` (centres unmarked) [compound 9], for which, in the series on recombinant SmCB1, the “decrease in inhibitory potency” value stood at 8.4 fold. The “SmCB1 inhibition k2nd” value with recombinant SmCB1 amounted to 793 ± 75 M^–1·s^–1. Also, the schistosomula severity score in series [2] (setting [3]) amounted to 1; in series [2] (setting [4]) it was 2; in series [2] (setting [5]) it was 4; in series [2] (setting [6]), 3; in series [2] (setting [7]) it was 4; in series [2] (setting [8]), 4. In addition, the schistosomula phenotype descriptors result in series [2] (1 µM compound, 48 h) is “Dark, R”; in series [2] (10 µM compound, 24 h) it was “Dark, R, S”.
